Source: patent US8691865B2 (AbbVie Inc., priority 2008, dated 2014)
Where two headings read alike, the source gives them in different places.

Target: human Cav2.2 (Homo sapiens, UniProt Q00975)
Assay: Assessment of calcium channel activity using FLIPR (Ca2+ influx in IMR32 cells)
Type: cell-based
Summary of the method: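 Human neuroblastoma IMR32 cells were seeded at 1−1.2×10^5 cells/well and cultured 48 h at 37 °C before FLIPR calcium influx measurement. Percent inhibition at each concentration was calculated against the no-inhibitor signal, and IC50 came from sigmoidal dose-response fits.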

[1] = read-out: IC50 (μM) or percent inhibition (* indicates 3 minute incubation, otherwise 60 minute), IC50, 60 minute pre-incubation with compound, IMR32 cells, 80 mM KCl depolarization

human Cav2.2, sequence (Q00975 whole entry): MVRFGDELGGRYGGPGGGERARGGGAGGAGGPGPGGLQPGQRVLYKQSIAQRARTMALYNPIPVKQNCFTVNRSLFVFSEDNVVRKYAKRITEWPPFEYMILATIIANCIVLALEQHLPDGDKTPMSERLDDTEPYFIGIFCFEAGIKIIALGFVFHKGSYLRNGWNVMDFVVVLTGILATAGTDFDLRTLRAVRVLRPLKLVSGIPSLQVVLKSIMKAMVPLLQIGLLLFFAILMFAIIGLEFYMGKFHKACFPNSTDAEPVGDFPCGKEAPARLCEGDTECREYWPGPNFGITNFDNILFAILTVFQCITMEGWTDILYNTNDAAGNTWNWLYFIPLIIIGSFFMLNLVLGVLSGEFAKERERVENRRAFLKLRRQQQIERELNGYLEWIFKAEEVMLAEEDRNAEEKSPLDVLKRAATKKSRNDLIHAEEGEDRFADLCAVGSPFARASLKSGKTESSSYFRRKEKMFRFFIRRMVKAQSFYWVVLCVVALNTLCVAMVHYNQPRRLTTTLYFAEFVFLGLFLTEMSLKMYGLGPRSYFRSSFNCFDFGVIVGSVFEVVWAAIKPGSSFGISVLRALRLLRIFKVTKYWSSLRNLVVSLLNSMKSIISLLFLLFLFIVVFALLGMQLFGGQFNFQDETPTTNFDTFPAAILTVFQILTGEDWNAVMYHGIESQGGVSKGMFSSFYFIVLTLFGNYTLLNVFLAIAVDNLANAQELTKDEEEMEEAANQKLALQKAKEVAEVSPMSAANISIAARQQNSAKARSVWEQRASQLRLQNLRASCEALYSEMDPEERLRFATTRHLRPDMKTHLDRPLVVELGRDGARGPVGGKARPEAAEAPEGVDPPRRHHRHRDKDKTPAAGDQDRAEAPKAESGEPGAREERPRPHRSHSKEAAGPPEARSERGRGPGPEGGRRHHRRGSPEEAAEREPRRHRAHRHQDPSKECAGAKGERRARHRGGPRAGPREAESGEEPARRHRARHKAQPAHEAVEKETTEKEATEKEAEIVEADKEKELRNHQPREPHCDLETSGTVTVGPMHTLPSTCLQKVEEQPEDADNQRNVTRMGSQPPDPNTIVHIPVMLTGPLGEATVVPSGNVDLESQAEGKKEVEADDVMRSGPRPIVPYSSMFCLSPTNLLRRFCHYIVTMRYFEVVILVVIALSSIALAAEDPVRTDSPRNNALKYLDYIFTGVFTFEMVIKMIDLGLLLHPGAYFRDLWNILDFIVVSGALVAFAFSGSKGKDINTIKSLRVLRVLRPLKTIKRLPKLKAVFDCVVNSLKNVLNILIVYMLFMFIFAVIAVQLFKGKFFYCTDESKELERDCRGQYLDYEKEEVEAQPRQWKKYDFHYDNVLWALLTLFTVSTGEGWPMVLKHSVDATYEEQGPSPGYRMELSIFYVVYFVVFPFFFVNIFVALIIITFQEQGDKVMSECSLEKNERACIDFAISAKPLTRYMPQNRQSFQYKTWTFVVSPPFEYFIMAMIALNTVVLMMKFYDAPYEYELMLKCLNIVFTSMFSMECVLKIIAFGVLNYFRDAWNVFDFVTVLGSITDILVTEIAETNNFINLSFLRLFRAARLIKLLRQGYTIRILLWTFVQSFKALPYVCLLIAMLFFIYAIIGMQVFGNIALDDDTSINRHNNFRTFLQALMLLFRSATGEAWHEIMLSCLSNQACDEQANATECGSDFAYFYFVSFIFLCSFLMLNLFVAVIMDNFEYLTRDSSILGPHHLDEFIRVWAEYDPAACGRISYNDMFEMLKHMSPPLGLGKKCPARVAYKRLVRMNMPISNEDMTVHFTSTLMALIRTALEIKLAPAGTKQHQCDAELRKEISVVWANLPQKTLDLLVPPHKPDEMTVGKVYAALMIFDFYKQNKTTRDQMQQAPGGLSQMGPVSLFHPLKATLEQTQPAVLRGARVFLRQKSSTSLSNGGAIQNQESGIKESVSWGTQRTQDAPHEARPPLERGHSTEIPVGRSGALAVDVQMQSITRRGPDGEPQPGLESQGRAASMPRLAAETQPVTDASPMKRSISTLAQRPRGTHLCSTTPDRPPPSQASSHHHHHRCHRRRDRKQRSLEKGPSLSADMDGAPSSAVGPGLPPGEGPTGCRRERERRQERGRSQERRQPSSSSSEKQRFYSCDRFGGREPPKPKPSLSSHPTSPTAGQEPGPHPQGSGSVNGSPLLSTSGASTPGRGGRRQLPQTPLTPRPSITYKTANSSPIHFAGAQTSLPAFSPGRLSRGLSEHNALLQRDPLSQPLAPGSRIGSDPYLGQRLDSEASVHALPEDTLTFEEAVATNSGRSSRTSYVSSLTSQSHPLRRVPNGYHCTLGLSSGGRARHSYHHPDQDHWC
human Cav2.2, sequence (P54289 25-956 partner limits assumed): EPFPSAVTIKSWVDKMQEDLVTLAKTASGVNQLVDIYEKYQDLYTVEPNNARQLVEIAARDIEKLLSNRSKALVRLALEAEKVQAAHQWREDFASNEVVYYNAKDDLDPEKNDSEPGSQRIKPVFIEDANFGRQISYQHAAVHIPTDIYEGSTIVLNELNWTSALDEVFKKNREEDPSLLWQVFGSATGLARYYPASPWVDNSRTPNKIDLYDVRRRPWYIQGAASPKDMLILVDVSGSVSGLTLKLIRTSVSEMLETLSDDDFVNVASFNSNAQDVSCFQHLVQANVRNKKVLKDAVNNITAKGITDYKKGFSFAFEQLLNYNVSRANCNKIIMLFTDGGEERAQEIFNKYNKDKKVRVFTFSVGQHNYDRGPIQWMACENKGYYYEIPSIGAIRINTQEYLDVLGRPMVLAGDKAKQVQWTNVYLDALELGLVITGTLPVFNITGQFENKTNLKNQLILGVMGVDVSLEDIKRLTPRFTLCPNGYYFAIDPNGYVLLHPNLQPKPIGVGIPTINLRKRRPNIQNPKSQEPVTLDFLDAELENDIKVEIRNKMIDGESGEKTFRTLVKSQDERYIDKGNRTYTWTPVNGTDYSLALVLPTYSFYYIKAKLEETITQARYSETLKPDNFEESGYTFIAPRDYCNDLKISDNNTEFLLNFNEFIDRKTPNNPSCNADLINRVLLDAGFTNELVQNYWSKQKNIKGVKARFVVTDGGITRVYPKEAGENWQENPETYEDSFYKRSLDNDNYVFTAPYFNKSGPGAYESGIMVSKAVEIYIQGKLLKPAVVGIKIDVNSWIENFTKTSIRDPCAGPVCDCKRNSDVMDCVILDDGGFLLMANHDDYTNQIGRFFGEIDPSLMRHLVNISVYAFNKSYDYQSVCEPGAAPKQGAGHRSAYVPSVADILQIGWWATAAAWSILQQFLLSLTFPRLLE
human Cav2.2, sequence (P54289 957-1103 partner limits assumed): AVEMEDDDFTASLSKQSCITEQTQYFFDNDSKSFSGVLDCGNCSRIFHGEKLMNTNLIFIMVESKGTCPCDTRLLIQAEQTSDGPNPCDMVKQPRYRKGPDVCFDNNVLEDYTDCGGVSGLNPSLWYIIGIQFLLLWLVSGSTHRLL
human Cav2.2, sequence (P54284 whole entry partner): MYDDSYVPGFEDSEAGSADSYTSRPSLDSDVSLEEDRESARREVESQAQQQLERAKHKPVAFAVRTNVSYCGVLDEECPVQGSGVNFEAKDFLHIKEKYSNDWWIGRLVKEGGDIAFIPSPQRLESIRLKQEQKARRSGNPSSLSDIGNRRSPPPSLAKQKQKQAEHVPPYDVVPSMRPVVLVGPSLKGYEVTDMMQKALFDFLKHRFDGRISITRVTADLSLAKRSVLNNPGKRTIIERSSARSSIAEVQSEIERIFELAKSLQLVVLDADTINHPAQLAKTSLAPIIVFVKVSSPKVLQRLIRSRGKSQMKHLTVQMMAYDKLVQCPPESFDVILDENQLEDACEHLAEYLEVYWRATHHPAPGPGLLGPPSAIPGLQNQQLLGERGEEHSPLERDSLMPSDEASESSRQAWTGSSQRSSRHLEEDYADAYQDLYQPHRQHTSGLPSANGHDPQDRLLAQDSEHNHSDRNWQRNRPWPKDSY

| Compound | IC50 [µM] | other results |
| --- | --- | --- |
| CC(C)C[C@H](N)C(=O)N[C@@H]1CC[C@H]2CN(Cc3cccc(C(F)(F)F)c3)C[C@H]21 (relative stereo) [Example 161, N^1-{(3aS*,4R*,6aR*)-2-[3-(trifluoromethyl)benzyl]octahydrocyclopenta[c]pyrrol-4-yl}-L-leucinamide] | – | IC50 [1]: 3.89 µM |
| O=C(N[C@@H]1CC[C@H]2CN(Cc3cccc(C(F)(F)F)c3)C[C@H]21)C(c1ccccc1)c1ccccc1 (relative stereo) [Example 145, 2,2-diphenyl-N-{(3aS*,4R*,6aR*)-2-[3-(trifluoromethyl)benzyl]octahydrocyclopenta[c]pyrrol-4-yl}acetamide] | 1.14 | – |
| FC(F)(F)c1cccc(N2C[C@H]3CC[C@H](NCc4nc5ccccc5[nH]4)[C@H]3C2)n1 [Example 683, (3aR,4S,6aS)-N-(1H-benzimidazol-2-ylmethyl)-2-[6-(trifluoromethyl)pyridin-2-yl]octahydrocyclopenta[c]pyrrol-4-amine] | 0.71 | – |
| O=C(N[C@H]1CC[C@H]2CN(Cc3ccccc3)C[C@H]21)C(c1ccccc1)C1CCCC1 (relative stereo) [Example 7, N-[(3aS*,4S*,6aR*)-2-benzyloctahydrocyclopenta[c]pyrrol-4-yl]-2-cyclopentyl-2-phenylacetamide] | 0.92 | – |
| Cc1n[nH]cc1CN[C@H]1CC[C@@H]2CN(c3cccc(C(F)(F)F)n3)C[C@@H]21 [Example 695, (3aR,4S,6aS)-N-[(3-methyl-1H-pyrazol-4-yl)methyl]-2-[6-(trifluoromethyl)pyridin-2-yl]octahydrocyclopenta[c]pyrrol-4-amine] | 2.55 | – |
| O=C(N[C@H]1CC[C@H]2CN(Cc3cccc(C(F)(F)F)c3)C[C@H]21)C(C1CCCCC1)C1CCCCC1 (relative stereo) [Example 124, 2,2-dicyclohexyl-N-{(3aS*,4S*,6aR*)-2-[3-(trifluoromethyl)benzyl]octahydrocyclopenta[c]pyrrol-4-yl}acetamide] | 1.07 | – |
| FC(F)(F)c1cccc(N2C[C@H]3CC[C@H](NCc4nc(-c5ccccc5)[nH]c4Cl)[C@H]3C2)n1 [Example 726, (3aR,4S,6aS)-N-[(5-chloro-2-phenyl-1H-imidazol-4-yl)methyl]-2-[6-(trifluoromethyl)pyridin-2-yl]octahydrocyclopenta[c]pyrrol-4-amine] | 2.16 | – |
| CC(C)C(C(=O)N[C@H]1CC[C@@H]2CN(CC3CCCCC3)C[C@@H]21)c1ccccc1 (stereo partly drawn) [Example 83, N-[(3aR,4S,6aS)-2-(cyclohexylmethyl)octahydrocyclopenta[c]pyrrol-4-yl]-3-methyl-2-phenylbutanamide] | – | IC50 (IC50 (μM) or percent inhibition (* indicates 3 minute incubation, otherwise 60 minute), IC50, 3 minute pre-incubation (*), IMR32 cells, 80 mM KCl depolarization): 2.6 µM |
| CC(C)C[C@H](C(=O)N[C@H]1CC[C@H]2CN(Cc3cccc(C(F)(F)F)c3)C[C@H]21)N(C)C(=O)OC(C)(C)C (relative stereo) [Example 139, N^2-(tert-butyloxycarbonyl)-N^2-methyl-N^1-{(3aS*,4S*,6aR*)-2-[3-(trifluoromethyl)benzyl]octahydrocyclopenta[c]pyrrol-4-yl}-D-leucinamide] | – | IC50 [1]: 1.01 µM |
| CNCC(=O)N[C@H]1CC[C@@H]2CN(c3ccc(C(F)(F)F)cc3)C[C@@H]21 [Example 752, N^2-methyl-N-{(3aR,4S,6aS)-2-[4-(trifluoromethyl)phenyl]octahydrocyclopenta[c]pyrrol-4-yl}glycinamide] | > 9.5 | – |
| Fc1cnc2[nH]cc(CN[C@H]3CC[C@@H]4CN(c5cccc(C(F)(F)F)n5)C[C@@H]43)c2c1 [Example 690, (3aR,4S,6aS)-N-[(5-fluoro-1H-pyrrolo[2,3-b]pyridin-3-yl)methyl]-2-[6-(trifluoromethyl)pyridin-2-yl]octahydrocyclopenta[c]pyrrol-4-amine] | 0.75 | – |
| CN[C@H](CC(C)C)C(=O)N[C@@H]1CC[C@H]2CN(c3ccc(C(F)(F)F)cc3)C[C@H]21 [Example 768, N^2-methyl-N-{(3aS,4R,6aR)-2-[4-(trifluoromethyl)phenyl]octahydrocyclopenta[c]pyrrol-4-yl}-D-leucinamide] | 2.36 | – |
| O=C(N[C@H]1CC[C@H]2CN(Cc3cccc(C(F)(F)F)c3)C[C@H]21)C1CCCCC1 (relative stereo) [Example 127, N-{(3aS*,4S*,6aR*)-2-[3-(trifluoromethyl)benzyl]octahydrocyclopenta[c]pyrrol-4-yl}cyclohexanecarboxamide] | 1.26 | – |
| CCC[C@H](NC)C(=O)N[C@@H]1CC[C@H]2CN(Cc3ccc(C(F)(F)F)cc3)C[C@H]21 [Example 371, N^2-methyl-N^1-{(3aS,4R,6aR)-2-[4-(trifluoromethyl)benzyl]octahydrocyclopenta[c]pyrrol-4-yl}-L-norvalinamide] | 8.88 | – |
| O=C(CCCCC(c1ccc(F)cc1)c1ccc(F)cc1)N[C@H]1CC[C@H]2CN(Cc3cccc(C(F)(F)F)c3)C[C@H]21 (relative stereo) [Example 130, 6,6-bis(4-fluorophenyl)-N-{(3aS*,4S*,6aR*)-2-[3-(trifluoromethyl)benzyl]octahydrocyclopenta[c]pyrrol-4-yl}hexanamide] | – | IC50 [1]: 0.79 µM |
| N-(tert-butoxycarbonyl)-N-((3aR,4S,6aS)-2-{[3-(trifluoromethyl)phenyl]sulfonyl}octahydrocyclopenta[c]pyrrol-4-yl)-L-phenylalaninamide [Example 269] | – | IC50 [1]: 1.9 µM |

| Compound | IC50 [µM] | other results |
| --- | --- | --- |
| CN[C@@H](CC(C)C)C(=O)N[C@@H]1CC[C@H]2CN(S(=O)(=O)c3ccc(C(F)(F)F)cc3)C[C@H]21 [Example 183, N^2-methyl-N^1-((3aS,4R,6aR)-2-{[4-(trifluoromethyl)phenyl]sulfonyl}octahydrocyclopenta[c]pyrrol-4-yl)-L-leucinamide] | – | IC50 [1]: 1.41 µM |
| N[C@H]1CC[C@@H]2CN(c3cccc(C(F)(F)F)c3)C[C@@H]21 [Example 605, (3aR,4S,6aS)-2-[3-(trifluoromethyl)phenyl]octahydrocyclopenta[c]pyrrol-4-amine] | 4.33 | – |
| O=S(=O)(N[C@H]1CC[C@@H]2CN(c3cccc(C(F)(F)F)n3)C[C@@H]21)c1cccc(Cl)c1 [Example 704, 3-chloro-N-{(3aR,4S,6aS)-2-[6-(trifluoromethyl)pyridin-2-yl]octahydrocyclopenta[c]pyrrol-4-yl}benzenesulfonamide] | 4.63 | – |
| CCC[C@H](NC)C(=O)N[C@@H]1CC[C@@H]2CN(Cc3ccccc3)C[C@@H]21 [Example 363, N^1-[(3aR,4R,6aS)-2-benzyloctahydrocyclopenta[c]pyrrol-4-yl]-N^2-methyl-L-norvalinamide] | > 30 | – |
| O=C(N[C@H]1CC[C@H]2CN(Cc3cccc(C(F)(F)F)c3)C[C@H]21)C(O)(C1CCCCC1)C1CCCCC1 [Example 152, 2,2-dicyclohexyl-2-hydroxy-N-{(3aS,4S,6aR)-2-[3-(trifluoromethyl)benzyl]octahydrocyclopenta[c]pyrrol-4-yl}acetamide] | 0.51 | – |
| O=C(N[C@H]1CC[C@@H]2CN(c3cccc(C(F)(F)F)n3)C[C@@H]21)c1cccc(O)c1 [Example 577, 3-hydroxy-N-{(3aR,4S,6aS)-2-[6-(trifluoromethyl)pyridin-2-yl]octahydrocyclopenta[c]pyrrol-4-yl}benzamide] | 2.06 | – |
| O=C(N[C@H]1CC[C@@H]2CN(c3cccc(C(F)(F)F)n3)C[C@@H]21)c1ccc(F)c(F)c1 [Example 565, 3,4-difluoro-N-{(3aR,4S,6aS)-2-[6-(trifluoromethyl)pyridin-2-yl]octahydrocyclopenta[c]pyrrol-4-yl}benzamide] | 0.81 | – |
| CN[C@@H](CC(C)C)C(=O)N[C@H]1CC[C@@H]2CN(c3cccc(C(F)(F)F)c3F)C[C@@H]21 [Example 635, N-{(3aR,4S,6aS)-2-[2-fluoro-3-(trifluoromethyl)phenyl]octahydrocyclopenta[c]pyrrol-4-yl}-N^2-methyl-L-leucinamide] | 0.92 | – |
| CN[C@@H](CC(C)(C)C)C(=O)N[C@H]1CC[C@@H]2CN(S(=O)(=O)c3ccc(C(F)(F)F)cc3)C[C@@H]21 [Example 415, N^2,4-dimethyl-N^1-((3aR,4S,6aS)-2-{[4-(trifluoromethyl)phenyl]sulfonyl}octahydrocyclopenta[c]pyrrol-4-yl)-L-leucinamide] | 1.31 | – |
| CN[C@H](C(=O)N[C@H]1CC[C@@H]2CN(c3ccc(C(F)(F)F)cc3)C[C@@H]21)[C@H](C)O [Example 750, N^2-methyl-N-{(3aR,4S,6aS)-2-[4-(trifluoromethyl)phenyl]octahydrocyclopenta[c]pyrrol-4-yl}-L-allothreoninamide] | > 3 | – |
| CCCC[C@H](NC)C(=O)N[C@H]1CC[C@@H]2CN(c3cccc(C(F)(F)F)n3)C[C@@H]21 [Example 589, N^2-methyl-N-{(3aR,4S,6aS)-2-[6-(trifluoromethyl)pyridin-2-yl]octahydrocyclopenta[c]pyrrol-4-yl}-L-norleucinamide] | 0.32 | – |
| O=S(=O)(N[C@@H]1CC[C@H]2CN(CCCCCC(c3ccc(F)cc3)c3ccc(F)cc3)C[C@H]21)c1cccc(C(F)(F)F)c1 [Example 191, N-{(3aS,4R,6aR)-2-[6,6-bis(4-fluorophenyl)hexyl]octahydrocyclopenta[c]pyrrol-4-yl}-3-(trifluoromethyl)benzenesulfonamide] | – | IC50 [1]: 0.51 µM |
| CN[C@@H](CO)C(=O)N[C@H]1CC[C@@H]2CN(c3ccc(C(F)(F)F)cc3)C[C@@H]21 [Example 749, N^2-methyl-N-{(3aR,4S,6aS)-2-[4-(trifluoromethyl)phenyl]octahydrocyclopenta[c]pyrrol-4-yl}-L-serinamide] | > 3 | – |
| COc1cccc(N2C[C@H]3CC[C@H](NC(=O)[C@@H]4C[C@@H](F)CN4)[C@H]3C2)c1 [Example 645, (4R)-4-fluoro-N-[(3aR,4S,6aS)-2-(3-methoxyphenyl)octahydrocyclopenta[c]pyrrol-4-yl]-L-prolinamide] | > 30 | – |
| CC(C)C[C@@H](C(=O)N[C@@H]1CC[C@H]2CN(Cc3ccccc3)C[C@H]21)N1CCCC1 [Example 250, (2S)-N-[(3aS,4R,6aR)-2-benzyloctahydrocyclopenta[c]pyrrol-4-yl]-4-methyl-2-pyrrolidin-1-ylpentanamide] | > 30 | – |
